Test systems include SN12C renal; SK-MEL-28 melanoma; BT-549 breast; SW-620 colon; TK-10 renal; HOP-92 NSCLC; NCI-H460 lung; MDA-MB-435; SF-268 CNS; 786-0 renal.
Test in all cases: inhibition of tumour cell growth, NCI panel, 48 h

“And” between values parts separate entries of the source, which are not always exact repeats. Equal values may be shown once.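 Protocol summary: plate cells (96-well), add compound at 5 concentrations, incubate 48 h, interpolate endpoints linearly. At the GI50, growth is halved. TGI marks complete inhibition of growth.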

Turning to `COc1cc(C(=O)NC2CCN(C)CC2)ccc1Nc1ncc2c(n1)N(C1CCCC1)CC(F)(F)C(=O)N2C`, the GI50 in the assay on SN12C renal is 0.124 µM; in the assay on SK-MEL-28 melanoma it was 0.0293 µM; in the assay on BT-549 breast, 0.0989 µM; in the assay with SW-620 colon, below 0.01 µM; in the assay with TK-10 renal, 1.39 µM; in the assay on HOP-92 NSCLC, 0.1 µM. Moreover, the GI50 is below 0.0152 µM in the assay with NCI-H460 lung, below 0.01 µM in the assay with MDA-MB-435, 0.0487 µM in the assay on SF-268 CNS and 0.0903 µM in the assay on 786-0 renal. The TGI in the assay on SN12C renal was found to be 15 µM; with SK-MEL-28 melanoma, 12.1 µM; in the assay on BT-549 breast it was 15.5 µM; with SW-620 colon, 10.4 µM; with TK-10 renal, 14.4 µM; in the assay on HOP-92 NSCLC, 1.7 µM. Besides, the TGI in the assay on NCI-H460 lung is 11.6 µM; in the assay with MDA-MB-435, below 0.01 µM; in the assay on SF-268 CNS it was 12.5 µM; in the assay with 786-0 renal, 6.87 µM.
As for `O=C(Nc1ncc(Cc2ccccc2)s1)c1ccc2c(c1)OCCO2`, the GI50 is 0.0748 µM in the assay with SN12C renal; 0.0823 µM in the assay with SK-MEL-28 melanoma; 0.267 µM with BT-549 breast; 0.0435 µM in the assay with SW-620 colon; 0.154 µM in the assay with TK-10 renal; 1.35 µM with HOP-92 NSCLC. Further, the GI50 with NCI-H460 lung is 0.0375 µM; with MDA-MB-435 it was 0.0187 µM; with SF-268 CNS it was 0.459 µM; in the assay on 786-0 renal it was 0.0562 µM. Also, the TGI was above 100 µM in the assay on SN12C renal; above 100 µM in the assay with SK-MEL-28 melanoma; above 100 µM with BT-549 breast; above 100 µM with SW-620 colon; above 100 µM with HOP-92 NSCLC; above 34.5 µM with NCI-H460 lung. Also, the values for the TGI with MDA-MB-435, in the assay with SF-268 CNS and in the assay on 786-0 renal were 0.0436 µM, above 100 µM and above 100 µM, respectively.
On to `NC(=O)c1nnn(Cc2cc(Cl)c(C(=O)c3ccc(Cl)cc3)c(Cl)c2)c1N`, for which the GI50 was above 9.09 µM with SN12C renal; above 9.09 µM in the assay with SK-MEL-28 melanoma; above 9.09 µM in the assay on SW-620 colon; above 9.09 µM in the assay with TK-10 renal; above 9.09 µM with HOP-92 NSCLC; 1.04 µM in the assay with NCI-H460 lung. The GI50 in the assay with SF-268 CNS and in the assay with 786-0 renal was above 9.09 µM in each case. Also, the TGI in the assay on SN12C renal is > 9.09 µM and 46.8 µM; with SK-MEL-28 melanoma it was > 9.09 µM and 44.6 µM; in the assay with BT-549 breast it was above 52.4 µM; with SW-620 colon it was > 9.09 µM and 50.1 µM; in the assay with TK-10 renal, > 9.09 µM and 39 µM; in the assay on HOP-92 NSCLC, > 9.09 µM and 48.8 µM. In addition, the TGI is > 9.09 µM and 40.2 µM in the assay on NCI-H460 lung; above 40.7 µM with MDA-MB-435; > 9.09 µM and 29 µM with SF-268 CNS; > 9.09 µM and 43 µM with 786-0 renal.
As to `CC1(C)CC(=O)C(C(c2cccc(O)c2O)C2C(=O)CC(C)(C)CC2=O)C(=O)C1`, the TGI with SN12C renal, in the assay on SK-MEL-28 melanoma, with BT-549 breast, in the assay on SW-620 colon, with TK-10 renal and in the assay with HOP-92 NSCLC was above 100 µM in each case. For the same compound, the TGI in the assay on NCI-H460 lung, in the assay on MDA-MB-435, with SF-268 CNS and in the assay on 786-0 renal was above 100 µM in each case.
Consider `O=C(O)CNC(=O)c1ccccc1O`, for which the TGI in the assay with SN12C renal, with SK-MEL-28 melanoma, in the assay with BT-549 breast, in the assay on SW-620 colon, in the assay with TK-10 renal and in the assay with HOP-92 NSCLC was above 100 µM throughout. Besides, the TGI in the assay on NCI-H460 lung, with MDA-MB-435, in the assay with SF-268 CNS and in the assay on 786-0 renal was above 100 µM throughout.
For `COc1ccccc1CNCCCN1C(=O)c2ccc3c4c(ccc(c24)C1=O)C(=O)N(CCCNCCCCNCCCCN)C3=O`, the GI50 in the assay on SN12C renal is 1.99 µM; in the assay on SK-MEL-28 melanoma, 2.1 µM; with BT-549 breast it was 9.17 µM; in the assay on SW-620 colon, 0.417 µM; in the assay with TK-10 renal, 3.71 µM; with HOP-92 NSCLC it was 1.87 µM. Besides, the GI50 was 2.27 µM with NCI-H460 lung, 1.62 µM in the assay on MDA-MB-435, 0.903 µM with SF-268 CNS and 2.25 µM in the assay with 786-0 renal. The TGI with SN12C renal was 5.9 µM; with SK-MEL-28 melanoma it was 5.9 µM; with BT-549 breast, 24.5 µM; in the assay with SW-620 colon, 10.1 µM; in the assay on TK-10 renal, 51.7 µM; in the assay on HOP-92 NSCLC, 8.66 µM. The TGI with NCI-H460 lung turned out to be 5.8 µM; in the assay on MDA-MB-435 it was 3.37 µM; with SF-268 CNS it was 6.99 µM; in the assay on 786-0 renal, 14.4 µM.
In the case of `Cn1cc(C2=C(c3c4n(c5ccccc35)CC(CN)C4)C(=O)NC2=O)c2ccccc21` (configuration not stated), the GI50 is 3.4 µM with SN12C renal; 3.37 µM with SK-MEL-28 melanoma; 4.46 µM in the assay on BT-549 breast; 2.98 µM in the assay with SW-620 colon; 2.94 µM with TK-10 renal; 4.32 µM with HOP-92 NSCLC. Further, the GI50 in the assay with NCI-H460 lung was 3.79 µM; in the assay on MDA-MB-435, 1.11 µM; in the assay with SF-268 CNS, 3.94 µM; in the assay on 786-0 renal it was 3.64 µM. The TGI in the assay on SN12C renal is 11 µM; in the assay with SK-MEL-28 melanoma, 7.01 µM; in the assay with BT-549 breast, 10.5 µM; with SW-620 colon, 6.84 µM; in the assay with TK-10 renal it was 8.07 µM; with HOP-92 NSCLC, 11.6 µM. Further, the TGI stood at 7.8 µM with NCI-H460 lung, 4.72 µM in the assay on MDA-MB-435, 9.57 µM with SF-268 CNS and 8.53 µM in the assay with 786-0 renal.
As to `O=C(CCc1nnc(-c2c(Cl)cccc2Cl)o1)c1nc2ccccc2[nH]1`, the GI50 with SN12C renal was 6.22 µM; in the assay with SK-MEL-28 melanoma, 12.7 µM; with BT-549 breast it was 7.54 µM; in the assay with SW-620 colon, 3.46 µM; in the assay on TK-10 renal, 16.4 µM; in the assay with HOP-92 NSCLC it was 1.77 µM. Moreover, the GI50 with NCI-H460 lung was 4.99 µM; in the assay on MDA-MB-435 it was 2 µM; in the assay on SF-268 CNS, 7.29 µM; in the assay on 786-0 renal, 10.7 µM. The TGI is 56.9 µM in the assay on SN12C renal; 42.7 µM in the assay with SK-MEL-28 melanoma; 92.4 µM in the assay on BT-549 breast; 16.3 µM with SW-620 colon; above 100 µM with TK-10 renal; 15.8 µM with HOP-92 NSCLC. The TGI in the assay with NCI-H460 lung was found to be 28.6 µM; in the assay on MDA-MB-435 it was 4.77 µM; with SF-268 CNS, 46.6 µM; with 786-0 renal, 45.5 µM.
